Measurements published in patent publication US20060116325A1, “Methods and compositions for inhibiting hiv-coreceptor interactions” (priority 2001, published 2006).

Tests used:
CCR5 [1] = biological target: T1, CCR5 (Homo sapiens, UniProt P51681); assay: Competition with 125I-MIP-1β binding to SupT1/CCR5 cells; design: expressed in transfected cells; host or cells: Sup-T1; settings: room temperature, 0.1% sodium azide, FIG. 7A
Method: FIGS. 7A through 7C depicts the inhibition of chemokine receptor ligand binding by peptide pre-treatment. FIG. 7A. Effect of pre-treatment with peptides 15K and 15D on the binding of MIP-1β to SupT1/CCR5 cells; FIG. 7B. Effect of pre-treatment with peptides 15K and 1SD on the binding of SDF-1α to CEMx174 cells; and FIG. 7C. Effect of pre-treatment with 15K and control peptide 15GIG on the binding of SDF-1α to CEmx174 cells. Binding studies were performed as described in Materials and Methods.
Binding assays were performed with HEK-CCR5 or HEK CXCR4 in triplicate by adding unlabeled competitor (anti-coreceptor binding peptide or control chemokine) and radiolabeled chemokine, 0.2 ng/ml (^125I-MIP-1β or SDF-1α, specific activity 2000 Ci/mmol, NEN Life Science Products) to a cell suspension (4×10^5 cells in 200 μl) in RPMI 1640 supplemented with 1% bovine serum albumin and 25 mM HEPES pH 8.0 (binding medium). […] The supernatant was aspirated and the cell-associated radioactivity was measured using a 1272 Wallac gamma counter. […] After incubation cells were transferred to the tubes containing 800 μl of 10% sucrose in PBS and harvested by centrifugation, the supematant was aspirated and the cell-associated radioactivity was measured using a 1272 Wallac gamma counter. The data were analyzed by nonlinear regression using the computer program GraphPad Prizm 3.0. […]

CXCR4 = CXCR4 (Homo sapiens, UniProt P61073); assay: Ca2+ mobilization in THP-1 cells in response to SDF-1α (fura-2); type: cell-based; settings: peptide 500 μM preincubated, SDF-1α 100 ng/ml, FIG. 6
Sequence of CXCR4 (P61073 whole entry): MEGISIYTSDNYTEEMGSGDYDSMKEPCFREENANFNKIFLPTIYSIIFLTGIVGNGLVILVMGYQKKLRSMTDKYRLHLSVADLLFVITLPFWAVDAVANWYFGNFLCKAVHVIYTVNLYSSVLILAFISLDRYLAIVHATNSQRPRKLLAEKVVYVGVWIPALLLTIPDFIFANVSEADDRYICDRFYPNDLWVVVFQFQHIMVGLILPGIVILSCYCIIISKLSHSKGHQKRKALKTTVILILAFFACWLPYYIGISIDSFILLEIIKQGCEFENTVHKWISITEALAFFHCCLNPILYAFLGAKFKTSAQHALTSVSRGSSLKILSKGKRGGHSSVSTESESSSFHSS
Method: FIGS. 6A through 6D depict the effect of peptide pre-treatment on the mobilization of intracellular Ca^2+ in THP-1 cells in response to SDF-1α. Cells loaded with fura-2 were preincubated with peptide 15K (FIG. 6C), 15D (FIG. 6B) and 15CW (FIG. 6D) at a final concentration of 500 μM for 3 min prior to stimulation with SDF-1α (100 ng/ml).
THP-1 cells (12×10^6/ml in RPMI 1640 containing 10% FSB) were loaded in the presence of 5 μM fura-2 AM (Molecular Probes, Eugene, Oreg.) at 22° C. for 30 min in the dark. Subsequently, cells were washed three times and resuspended (10^6 cells/ml) in the buffer containing 138 mM sodium chloride, 6 mM potassium chloride, 1 mM calcium chloride, 1 mM magnesium chloride, 10 mM HEPES, pH 7.4,5 mM glucose, and 0.1% bovine serum albumin. 1.93 ml of loaded cells was transferred into a quartz cuvette. 50 μl of a peptide stock solution (2×10^−2 M) was added to the cells, and after 3 min of incubation 20 μl of human SDF-1α (10 μg/ml, PeproTech) was added to a stirred cuvette. The measurements were performed using luminescence spectrophotometer LS50 B (Perkin-Elmer). Ca^2+ mobilization in the cells in response to SDF-1α was measured by analysis of the ratio of fluorescence emitted at 510 nm after sequential excitation at 340 and 380 nm.
The increase of intracellular Ca^2+ concentration mediated by a chemokine receptor in response to a cognate chemokine is a reliable assay for measurement of chemokine agonist activity. The human monocytic cell line THP-1 expresses a high level of CXCR4 and responds well to SDF-1α stimulation (FIG. 6A), so these cells were used to determine whether peptides 15D and 15K could block the activation of CXCR4.

CCR5 [2] = biological target: T1, CCR5; assay: Binding of anti-CCR5 antibody 2D7 to HEK293/CCR5 cells (flow cytometry); design: expressed in transfected cells; host or cells: HEK-293; settings: 0.1 mM peptide, 45 min 22° C.
Method: CEMx174 cells were pelleted and resuspended at 10^6 cells/ml in PBS containing 1% BSA and 0.1% sodium azide (FACS buffer). Cells were then preincubated with designated concentrations of peptides or SDF-1-α (1 μg/ml) at 22° C. for 60 min. FITC-labeled anti-human CXCR4 antibody (clone 12G5, BD PharMingen, San Diego, Calif.) was added to the cells per the manufactures instructions and further incubated at 22° C. for 40 minutes. Cells were extensively washed with FACS buffer and analyzed using a FACS Calibur flowcytometer (Becton Dickinson). HEK/CCR5 cells were suspended in Dulbecco's PBS containing 1% FCS and 0.05% NaN3 (10^4 cells in 100 μl) and incubated with or without 5 μg of MIP-1β (PeproTech, Rocky Hill, N.J.), 0.1 mM peptide 15D or 15K for 45 min at 22° C. Cells were then treated with FITC-conjugated anti-human CCR5 antibody (2D7; BD PharMingen, San Diego, Calif.), and incubated for 30 min at 22° C. Cells were washed twice, and analyzed using a FACScan flow cytometer (Becton Dickinson Immunocytometry Systems, San Jose, Calif.).
The effect of the exemplary peptides 15K and 15D on the binding of 2D7 antibodies to CCR5 was assayed to further evaluate the mechanism of anti-coreceptor activity of the peptides. […]
The effects of peptides 15D and 15K on 2D7 antibody binding to HEK293/CCR5 cells were analyzed by flow cytometry.

T1 sequence (P51681 whole entry): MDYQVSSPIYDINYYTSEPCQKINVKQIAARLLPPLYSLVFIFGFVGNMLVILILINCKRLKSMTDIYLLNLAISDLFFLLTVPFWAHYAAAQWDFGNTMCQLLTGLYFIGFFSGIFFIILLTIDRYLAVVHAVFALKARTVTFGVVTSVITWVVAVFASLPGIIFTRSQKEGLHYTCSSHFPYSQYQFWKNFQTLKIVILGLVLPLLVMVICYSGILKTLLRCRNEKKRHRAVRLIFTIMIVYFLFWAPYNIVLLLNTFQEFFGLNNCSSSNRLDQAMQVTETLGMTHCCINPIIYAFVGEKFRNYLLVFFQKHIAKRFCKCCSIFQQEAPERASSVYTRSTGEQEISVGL

Substance: IRKAHCNISRAKWND [Peptide 15K]
- inhibition of MIP-1β binding to CCR5 (CCR5 [1]): competitively inhibited chemokine binding
- inhibition of Ca2+ mobilization in response to SDF-1α (CXCR4): inhibited Ca^2+ mobilization although less efficiently than 15D
- effect on 2D7 anti-CCR5 antibody binding (CCR5 [2]): No significant effect

Substance: I R K A H C N I S R A D W N D [Peptide 15D]
- inhibition of MIP-1β binding to CCR5 (CCR5 [1]): competitively inhibited chemokine binding
- inhibition of Ca2+ mobilization in response to SDF-1α (CXCR4): completely inhibited
- effect on 2D7 anti-CCR5 antibody binding (CCR5 [2]): No significant effect
